Values of other authors in US20250009831A1, “COMBINATION OF SCUTELLARIA EXTRACTS WITH CITRUS BERGAMIA OR CYNARA CARDUNCULUS EXTRACTS AND FORMULATIONS CONTAINING THEM” (AKHYNEX S.R.L., priority 2021, published 2025).

System: rats treated with orotic acid to induce fatty liver disease

## O=C(O)[C@H]1O[C@@H](Oc2cc3oc(-c4ccccc4)cc(=O)c3c(O)c2O)[C@H](O)[C@@H](O)[C@@H]1O [baicalin]
rat, in vivo
  FFA-induced lipotoxicity: had a preventive effect on FFA-induced lipotoxicity
Rats treated with orotic acid
  accumulation of fats in the liver: inhibited the accumulation of fats in the liver
  hypertrophy of the hepatocytes: attenuated hypertrophy of the hepatocytes
